Article doi:10.1101/2020.07.28.225383v1 (biorxiv, 2020)

How the values were obtained:
[1] = target: CMII (bovine cardiac myosin II, MYH7) (Bos taurus, UniProt Q9BE39); experiment: NADH-linked ATPase assay, quadratic […] binding fit; type: biochemical
[2] = target: SkMII (skeletal muscle myosin II); experiment: as above; type: biochemical

Sequence of CMII (bovine cardiac myosin II, MYH7) (Q9BE39 whole entry): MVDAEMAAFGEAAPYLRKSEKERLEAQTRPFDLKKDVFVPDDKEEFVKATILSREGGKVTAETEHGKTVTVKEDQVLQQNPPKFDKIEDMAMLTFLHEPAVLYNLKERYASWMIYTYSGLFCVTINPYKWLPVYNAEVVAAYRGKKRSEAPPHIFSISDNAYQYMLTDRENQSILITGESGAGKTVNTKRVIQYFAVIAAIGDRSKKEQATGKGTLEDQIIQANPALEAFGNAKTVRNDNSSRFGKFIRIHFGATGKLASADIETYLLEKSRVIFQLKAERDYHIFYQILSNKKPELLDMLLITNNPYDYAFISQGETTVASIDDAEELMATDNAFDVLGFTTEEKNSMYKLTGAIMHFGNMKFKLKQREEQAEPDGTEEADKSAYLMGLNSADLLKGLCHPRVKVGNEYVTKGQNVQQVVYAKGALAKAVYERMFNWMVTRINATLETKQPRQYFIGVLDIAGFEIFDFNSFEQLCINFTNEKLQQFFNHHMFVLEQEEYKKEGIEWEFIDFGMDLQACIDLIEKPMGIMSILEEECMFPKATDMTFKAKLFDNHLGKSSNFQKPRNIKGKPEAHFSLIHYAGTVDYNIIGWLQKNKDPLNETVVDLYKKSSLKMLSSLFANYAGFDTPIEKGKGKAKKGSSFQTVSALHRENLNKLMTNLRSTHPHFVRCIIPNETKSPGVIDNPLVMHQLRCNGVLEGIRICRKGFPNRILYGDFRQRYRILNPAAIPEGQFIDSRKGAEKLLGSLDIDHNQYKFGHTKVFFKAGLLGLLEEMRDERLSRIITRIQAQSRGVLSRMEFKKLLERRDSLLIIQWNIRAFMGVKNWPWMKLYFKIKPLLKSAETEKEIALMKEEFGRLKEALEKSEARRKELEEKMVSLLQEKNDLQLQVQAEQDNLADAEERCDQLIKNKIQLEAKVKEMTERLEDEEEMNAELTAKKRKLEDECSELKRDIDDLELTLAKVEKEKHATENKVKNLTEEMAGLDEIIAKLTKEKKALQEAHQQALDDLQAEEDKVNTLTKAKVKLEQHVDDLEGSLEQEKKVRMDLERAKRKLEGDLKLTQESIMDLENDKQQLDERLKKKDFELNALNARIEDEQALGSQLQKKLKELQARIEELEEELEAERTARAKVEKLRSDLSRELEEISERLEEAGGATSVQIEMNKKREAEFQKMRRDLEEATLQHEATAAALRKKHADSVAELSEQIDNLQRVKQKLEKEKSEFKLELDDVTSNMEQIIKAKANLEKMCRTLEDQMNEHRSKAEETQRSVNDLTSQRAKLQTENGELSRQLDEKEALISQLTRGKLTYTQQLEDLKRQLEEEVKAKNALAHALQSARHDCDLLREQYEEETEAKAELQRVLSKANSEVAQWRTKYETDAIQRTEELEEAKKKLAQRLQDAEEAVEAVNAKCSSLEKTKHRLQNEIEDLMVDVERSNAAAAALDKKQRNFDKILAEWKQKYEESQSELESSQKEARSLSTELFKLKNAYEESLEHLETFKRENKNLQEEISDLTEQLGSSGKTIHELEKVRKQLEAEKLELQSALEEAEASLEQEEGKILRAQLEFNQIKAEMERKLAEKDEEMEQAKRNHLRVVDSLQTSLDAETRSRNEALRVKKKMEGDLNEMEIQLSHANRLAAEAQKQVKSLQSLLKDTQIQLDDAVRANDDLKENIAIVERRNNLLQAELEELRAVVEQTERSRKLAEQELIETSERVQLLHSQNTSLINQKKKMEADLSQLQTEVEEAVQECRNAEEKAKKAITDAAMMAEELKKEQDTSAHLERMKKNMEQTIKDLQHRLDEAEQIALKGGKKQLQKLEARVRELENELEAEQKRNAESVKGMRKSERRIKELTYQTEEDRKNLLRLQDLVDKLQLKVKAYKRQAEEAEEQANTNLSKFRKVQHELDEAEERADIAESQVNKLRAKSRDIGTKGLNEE

| Structure (SMILES) | Ki [1] | Ki [2] |
| --- | --- | --- |
| Cc1ccc2c(c1)C(=O)[C@]1(O)CCN(c3ccccc3)C1=N2 [Blebbistatin] | 1.9 µM | 0.28 µM |
| Cc1ccc2c(c1)C(=O)[C@]1(O)CCN(c3cnc4nc(C)oc4c3)C1=N2 [Skeletostatin 1, (S)-3a-hydroxy-6-methyl-1-(2-methyloxazolo[4,5-b]pyridin-6-yl)-1,2,3,3a-tetrahydro-4H-pyrrolo[2,3-b]quinolin-4-one] | 83 µM | 0.48 µM |
| CC(=O)Nc1ccc(N2CC[C@@]3(O)C(=O)c4cc(C)ccc4N=C23)cc1 [Skeletostatin 2, (S)-N-(4-(3a-hydroxy-6-methyl-4-oxo-2,3,3a,4-tetrahydro-1H-pyrrolo[2,3-b]quinolin-1-yl)phenyl)acetamide] | 34 µM | 0.27 µM |
| Cc1ccc2c(c1)C(=O)[C@]1(O)CCN(c3ccc(N4CCOCC4)cc3)C1=N2 [Skeletostatin 3, (S)-3a-hydroxy-6-methyl-1-(4-morpholinophenyl)-1,2,3,3a-tetrahydro-4H-pyrrolo[2,3-b]quinolin-4-one] | > 56 µM | 0.79 µM |
